Experimental data as given in patent US20220273829A1, “RADIOLABELED SUGARS FOR IMAGING OF FUNGAL INFECTIONS” (THE UNITED STATES OF AMERICA, as represented by the …, priority 2019, published 2022).
“Also recorded” adds a separate entry of the source. Read-outs that look alike come from different tables or passages of the source.

Tests used:
A. fumigatus = experiment: In vitro uptake of radiolabeled sugar in fungal cultures (retained radioactivity after incubation and washing); type: cell-based, Aspergillus fumigatus
Description: (§1) The inventors identified sugars and other molecules involved in the metabolic pathways of clinically-relevant fungal infections, and generated radiolabeled versions (3H or 14C) that were tested for in vitro uptake in bacteria (gram-negative, gram-positive, Pseudomonas aeruginosa), macrophages (J774 cell line) and m clinically-relevant fungal strains including Aspergillus, Rhizomucor, Cryptococcus and Candida albicans. Organisms and cells were exposed to the radiolabeled compounds and the in vitro uptake was measured (retained radioactivity after incubation and washing of the cultures measured using a beta counter). […] For the biodistribution and autoradiography studies showing specific uptake of the radioactive molecules by fungal-infected animals (i.e., retained radioactivity in the lungs in the infected animals but not in the control animals), the ligand(s) specific for each type of fungi was radiolabeled with 18F or other PET isotopes. Using the radiolabeled ligand(s), live PET imaging is performed on infected mice using a microPET/CT scanner. […] The images are reconstructed and analyzed using special software. […]
(§2) In vitro studies using ^3H-cellobiose were performed with measurement of retained radioactivity after incubation and washing of the cultures using a beta counter.

[1] = system: pulmonary aspergillosis (Aspergillus lung infection); type: in vivo, mouse; settings: for PET/CT uptake (SUV) in lungs of infected mice: 60-minute dynamic PET/CT, pulmonary aspergillosis model vs controls and poly (I:C) treated mice
Description: (§3) The inventors identified sugars and other molecules involved in the metabolic pathways of clinically-relevant fungal infections, and generated radiolabeled versions (3H or 14C) that were tested for in vitro uptake in bacteria (gram-negative, gram-positive, Pseudomonas aeruginosa), macrophages (J774 cell line) and m clinically-relevant fungal strains including Aspergillus, Rhizomucor, Cryptococcus and Candida albicans. Organisms and cells were exposed to the radiolabeled compounds and the in vitro uptake was measured (retained radioactivity after incubation and washing of the cultures measured using a beta counter). […] For the biodistribution and autoradiography studies showing specific uptake of the radioactive molecules by fungal-infected animals (i.e., retained radioactivity in the lungs in the infected animals but not in the control animals), the ligand(s) specific for each type of fungi was radiolabeled with 18F or other PET isotopes. Using the radiolabeled ligand(s), live PET imaging is performed on infected mice using a microPET/CT scanner. This is done by injecting the radioactive ligand intravenously through the tail vein and then positioning the animals inside the microPET/CT gantry and obtaining CT scan images as well as PET emission data. The images are reconstructed and analyzed using special software. To confirm specificity for fungal infection, in vivo uptake of the ligand(s) in animal models of sterile inflammation, as well as models of bacterial infection (gram positive and gram negative bacteria) are performed.
Three main mouse models were developed: (1) Aspergillus lung infection (nasopharyngeal administration of 30 μl suspension of Aspergillus conidia), (2) Aspergillus hematogenous spread (intravenous administration of 100 μl of fungal suspension via the tail vein) and (3) sterile lung inflammation model (induced by nasopharyngeal administration of 50-100 μg of poly (I:C) suspension in 30 μl of sterile PBS; poly(I:C) is a synthetic double stranded RNA which activates Toll-like receptors-3 (TLR3), thereby inducing signaling via multiple inflammatory pathways).
Standardized uptake values (SUVs) of ^18F-L-rhamnose in infected mice were then measured, and compared to animals with sterile lung inflammation (24 hours following post-pharyngeal poly (I:C) administration) and healthy controls.

bacteria [2] = settings: gram negative and gram positive; Ordonez et al. 2017; cited from earlier work
P. aeruginosa = settings: Ordonez et al. 2017; cited from earlier work
J774 macrophages [3] = settings: Ordonez et al. 2017; cited from earlier work
[4] = system: A. fumigatus-infected lungs (nasopharyngeal model); experiment: Organ biodistribution after injection of radiolabeled sugar in Aspergillus-infected mice; type: in vivo, mouse; settings: infected vs uninfected controls / sterile lung inflammation, FIG. 2, FIG. 4C
Description: as §1, with “isotopes.” for “isotopes. Using the radiolabeled ligand(s), live PET imaging is performed on infected mice using a microPET/CT scanner.”
(§4) ex vivo experiments were performed, including biodistribution (injecting the animals with radiolabeled molecules followed by euthanasia, collection of organs and measurement of radioactivity) and autoradiography (sectioning of lung tissues from injected animals to measure residual radioactivity).

J774 macrophages [5] = experiment: In vitro uptake of radiolabeled sugar in macrophages / mammalian cells; type: cell-based; settings: J774 cell line; FIG. 1D, FIG. 4B
Description: as §1, §2

bacteria [6] = experiment: In vitro uptake of radiolabeled sugar in bacterial cultures; type: cell-based, E. coli, S. aureus; settings: FIGS. 1B-1C
Description: as §3, with “To confirm specificity for fungal infection, in vivo uptake of the ligand(s) in animal models of sterile inflammation, as well as models of bacterial infection (gram positive and gram negative bacteria) are performed.” left out

[7] = system: A. fumigatus infected mice; experiment: Autoradiography of tissue sections from injected infected mice; type: in vivo, mouse; settings: lung sections; nasopharyngeal inoculation model; FIG. 1F, FIG. 5A
Description: as §1, with “isotopes.” for “isotopes. Using the radiolabeled ligand(s), live PET imaging is performed on infected mice using a microPET/CT scanner.”
as §4, with “radioactivity). […]” for “radioactivity).”

C[C@H](O)[C@H](O)[C@@H](O)[C@@H]([18F])C=O [^18F-L-rhamnose, 2-deoxy-2-[^18F]fluororhamnose]
in vitro uptake of ^18F-L-rhamnose by A. fumigatus (A. fumigatus; live versus heat-killed cultures, FIG. 1E): specifically internalized by live A. fumigatus cultures when compared to heat-killed cultures
PET/CT uptake (SUV) in lungs of infected mice ([1]; FIG. 3A): slight higher uptake in lung lesions compared to controls and poly (I:C) treated mice
PET/CT uptake (SUV) in lungs of infected mice ([1]; FIG. 3A, listed as [^18F]-rhamnose): Increased uptake is seen in the lungs of nasopharyngeally-infected pulmonary IA (AF NP) mice
PET uptake in lungs of control or sterile lung inflammation mice ([1]; control and poly (I:C) mice, averaged 520-3520 seconds post injection, FIG. 3A): no appreciable uptake is seen in the lungs of control or sterile lung (poly (I:C)inflammation mice
washout of the ligand (time activity curve) ([1]; mouse, in vivo): relatively fast washout

C[C@H](O)[C@H](O)[C@@H](O)[C@@H](O)C=O [L-Rhamnose]
L-Rhamnose uptake in bacteria (bacteria [2]): low
L-Rhamnose uptake in P. aeruginosa (P. aeruginosa): very low
L-Rhamnose uptake in macrophages (J774 macrophages [3]): very low

C[C@H](O)[C@H](O)[C@@H](O)[C@@H](O)C=O [^3H-L-Rhamnose]
biodistribution: uptake in lungs of infected versus control mice [4]: uptake of ^3H-L-Rhamnose in the lungs of infected animals but not in uninfected controls; also recorded: increased uptake in the lungs of infected compared to control mice and mice with sterile lung inflammation
in vitro retention/uptake of 3H-labeled sugar by macrophages (mammalian cells) (J774 macrophages [5]): minimal retention
in vitro retention/uptake of 3H-labeled sugar by A. fumigatus (A. fumigatus; retained radioactivity after incubation and washing, beta counter, FIG. 1A, FIG. 4A): significant retention
in vitro retention of 3H-L-Rhamnose by bacteria (bacteria [6]): minimal retention
autoradiography: uptake in lungs of infected mice [7]: accumulation of ^3H-L-Rhamnose in the lungs of infected but not uninfected animals
